Where two headings read alike, the source gives them in different places. Blank lines part the entries; values can stand above or below the molecule they belong to.
What was measured:
[1] = Stability evaluation in rat plasma (UPLC-MS/MS method validation); assay type: in vitro ADME; conditions: n = 6
From the text: The test method was extensively verified regarding precision, accuracy, and stability, according to the EMA (European Medicines Agency) 2011 and FDA (Food and Drug Administration) 2018 criteria. In six replicates, quality control (QC) samples were generated at low, medium, and high concentrations and were utilized to validate the procedure. This method was designed to conform to EMA and FDA regulatory requirements for bioanalytical methods.

[2] = test system: rat liver microsomes (RLMs); assay: Michaelis-Menten kinetics of pyrotinib metabolism in RLMs; assay type: in vitro ADME, Sprague-Dawley (SD) rat; conditions: pyrotinib 0.5–25 μM in RLMs
Procedure: The rats were anesthetized with 10% chloral hydrate after 12 h of starvation. […] The rat liver tissue was then accurately removed and transferred to Petri dishes at 0–4°C. The tissues were homogenized in 0.15 mol/L KCl-PBS buffer and stored at 4°C. The homogenate (CR30NX, Eppendorf, Germany) was centrifuged at 9000 rpm at 4°C for 30 min. The supernatant was transferred to another tube and was centrifuged at 105000 rpm at 4°C for 60 min. The precipitate containing liver microsomes was removed and suspended in 0.15 mol/L KCl-PBS buffer (containing 0.25 mol/L sucrose) and stored at −80°C for later use. The liver microsomal concentration was 8.838 mg/ml after the determination with the BCA protein quantification kit (Thermo Scientific, Waltham, MA, United States). […]
GraphPad Prism 7.0 software (GraphPad Software Inc.) was used to calculate the enzyme kinetic parameters of substrates which include Vmax, Km, IC50, Ki, and αKi values. […] The PK characteristics, maximal plasma concentration (Cmax), time to peak plasma concentration (Tmax), apparent volume of distribution (Vz/F), area under the plasma concentration-time curve (AUC), elimination half-life (t1/2), plasma clearance (Cl/F), and mean residence time (MRT), were calculated using DAS (Drug and Statistics) software (Version 3.2.8, The People’s Hospital of Lishui, China). […]

[3] = In vivo pharmacokinetics of pyrotinib in rats with or without azole pretreatment; design: species or system Sprague-Dawley rats; conditions: rat; for AUC(0-inf) / AUC(0-t) / CL/F / Cmax / Vd/F: male, Sprague-Dawley, plasma, po, 8 mg/kg; for AUC(0-inf) / AUC(0-t) / CL/F / Cmax / Vd/F / MRT(0-t) / MRT(0-∞) / Tmax / t1/2: 8 mg/kg pyrotinib oral; for AUC(0-inf) / AUC(0-t) / CL/F / Cmax / MRT(0-t) / MRT(0-∞) / Tmax / t1/2: n = 6; for Vd/F: n = 6, read-out: Vz/F
Procedure: Male Sprague-Dawley rats (180–220 g) were supplied by the Experimental Animal Center of Wenzhou Medical University. The animals were placed in a controlled environment of 20–26°C and 55 ± 15% relative humidity under a 12 h light-dark cycle. Except for the 12-h fasting period before the PK study, all rats were fed a standard rodent diet and freely consumed tap water. All experimental procedures and protocols were reviewed and approved by the Animal Care and Use Committee of the Wenzhou Medical University (No. wydw 2019-650), following the Guidelines for The Care and Use of Laboratory Animals. […] After the last administration of the three azoles or 0.5% CMC-Na (control group), a single dose of 8 mg/kg pyrotinib was administered orally to all rats in each group. Each group consisted of 6 rats. The azole antifungal medication was dissolved in 0.5% carboxymethylcellulose sodium solution (CMC-Na). […] The plasma was obtained by centrifuging the blood samples at 4000 rpm for 10 min at 4°C and stored at −80°C until analysis. The frozen plasma samples were thawed at room temperature and uniformly mixed; 50 μL of plasma sample was removed and mixed with 150 μL acetonitrile-midazolam solution (containing midazolam 200 ng/ml) to precipitate the proteins, followed by vortexing for 30 s and centrifuging at 13,000 rpm for 5 min. Then 150 μL of the supernatant was collected and placed into UPLC vials with 2 μL of sample was subjected to UPLC-MS/MS analysis. GraphPad Prism 7.0 software (GraphPad Software Inc.) was used to calculate the enzyme kinetic parameters of substrates which include Vmax, Km, IC50, Ki, and αKi values. The enzyme inhibition mode was obtained using the Linear Lineweaver-Burk plots. The PK characteristics, maximal plasma concentration (Cmax), time to peak plasma concentration (Tmax), apparent volume of distribution (Vz/F), area under the plasma concentration-time curve (AUC), elimination half-life (t1/2), plasma clearance (Cl/F), and mean residence time (MRT), were calculated using DAS (Drug and Statistics) software (Version 3.2.8, The People’s Hospital of Lishui, China). The one-way ANOVA and a Dunnet’s multiple range test were used for the statistical comparisons within groups with SPSS software (Version 25.0; SPSS Inc.). Statistical significance was set at p < 0.05.

[4] = design: method as in Ma et al., 2017; conditions: following the initial dose of 80–400 mg pyrotinib; ref Ma et al., 2017; cited from earlier work
[5] = test system: pyrotinib metabolism in rat liver microsomes (RLMs); assay: In vitro drug-drug interaction study: azole inhibition of pyrotinib metabolism (M1 formation) in RLMs; assay type: in vitro ADME, Sprague-Dawley (SD) rat; conditions: for IC50: 0.3 mg/ml RLMs, 1 mM NADPH, 37°C, 30 min, n = 3; for Ki / αKi: RLMs, pyrotinib 1, 2, 4, 8 µM, Lineweaver-Burk analysis
Procedure: The rats were anesthetized with 10% chloral hydrate after 12 h of starvation. […] The rat liver tissue was then accurately removed and transferred to Petri dishes at 0–4°C. The tissues were homogenized in 0.15 mol/L KCl-PBS buffer and stored at 4°C. The homogenate (CR30NX, Eppendorf, Germany) was centrifuged at 9000 rpm at 4°C for 30 min. The supernatant was transferred to another tube and was centrifuged at 105000 rpm at 4°C for 60 min. The precipitate containing liver microsomes was removed and suspended in 0.15 mol/L KCl-PBS buffer (containing 0.25 mol/L sucrose) and stored at −80°C for later use. The liver microsomal concentration was 8.838 mg/ml after the determination with the BCA protein quantification kit (Thermo Scientific, Waltham, MA, United States).
Waters Acquity UPLC I-Class (Waters, USA) was used to separate pyrotinib and midazolam. A binary solvent manager (BSM) and sample manager with a flow-through needle (SM-FTN) were used in the UPLC system. The metabolites’ effective separation was achieved using Acquity UPLC HSS T3 (100 × 2.1 mm, 1.8 μm particle size) (Waters Corporation, Milford, MA, USA) with a mobile phase of acetonitrile (solvent A) and 0.1% formic acid water containing 20 mmol ammonium acetate (solvent B). The gradient program was set as following: 0–0.3 min 10–30% A; 0.3–1 min 30–95% A; 1–2 min 95% A; 2–2.3 min 95–10% A. The mobile phase’s flow rate was 0.4 mL/min, the column temperature was set as 40 °C, and the injection volume was 2 μL. The XEVO TQD triple quadrupole mass spectrometer was equipped with an electrospray ionization (ESI) source, and the multiple reaction monitoring (MRM) mode was selected for quantification. The data were collected using the Mass lynx 4.1 software (Waters Corp.). Mass spectral data were obtained in positive electrospray mode (ESI+) in MRM mode. Nitrogen was used as desolvation (1000 L/h) and cone gases (50 L/h). The ion monitoring voltage conditions were as follows: capillary voltage, 2.5 kV; source temperature, 150°C; desolvation temperature, 500°C. Various reaction monitoring methods were used for quantitative analysis.
200 µl of the incubation mixture was set up as following: 0.3 mg/ml RLMs, 100 mM potassium phosphate buffer (pH 7.4), 1 mM NADPH, and three azole antifungal drugs. […] For fluconazole and itraconazole, the concentrations of them were all adjusted to 0.01, 0.1, 1, 5, 10, 50, and 100 µM. […] The ingredients were combined and pre-warmed for 5 min at 37°C. The reaction was initiated with NADPH and incubated at 37°C for 30 min. Then, 200 µl of acetonitrile-midazolam solution (containing midazolam 200 ng/ml) was added and the mixture was vortexed for 2 min to stop the reaction. After been centrifuged at 13000 rpm for 5 min, 2 µl aliquot of the supernatant was then used for the UPLC-MS/MS analysis.
GraphPad Prism 7.0 software (GraphPad Software Inc.) was used to calculate the enzyme kinetic parameters of substrates which include Vmax, Km, IC50, Ki, and αKi values. The enzyme inhibition mode was obtained using the Linear Lineweaver-Burk plots. The PK characteristics, maximal plasma concentration (Cmax), time to peak plasma concentration (Tmax), apparent volume of distribution (Vz/F), area under the plasma concentration-time curve (AUC), elimination half-life (t1/2), plasma clearance (Cl/F), and mean residence time (MRT), were calculated using DAS (Drug and Statistics) software (Version 3.2.8, The People’s Hospital of Lishui, China). The one-way ANOVA and a Dunnet’s multiple range test were used for the statistical comparisons within groups with SPSS software (Version 25.0; SPSS Inc.). Statistical significance was set at p < 0.05.

[6] = after 40 mg/kg fluconazole for 7 days
[7] = after 40 mg/kg itraconazole for 7 days
[8] = after 40 mg/kg ketoconazole for 7 days

Stability in rat plasma, RE ([1]; 4°C, 24 h, high concentration (pyrotinib 4500, pyrotinib M1 0.75 μM)): 101.04%
Stability in rat plasma, RE ([1]; 4°C, 24 h, low concentration (pyrotinib 15, pyrotinib M1 0.015 μM)): 102.40%
Stability in rat plasma, RE ([1]; 4°C, 24 h, medium concentration (pyrotinib 150, pyrotinib M1 0.15 μM)): 107.05%
Stability in rat plasma, RE ([1]; Room temperature, 6 h, high concentration (pyrotinib 4500, pyrotinib M1 0.75 μM)): 103.56%
Stability in rat plasma, RE ([1]; Room temperature, 6 h, low concentration (pyrotinib 15, pyrotinib M1 0.015 μM)): 105.41%
Stability in rat plasma, RE ([1]; Room temperature, 6 h, medium concentration (pyrotinib 150, pyrotinib M1 0.15 μM)): 106.18%
Stability in rat plasma, RE ([1]; −80°C, 7 days, high concentration (pyrotinib 4500, pyrotinib M1 0.75 μM)): 100.79%
Stability in rat plasma, RE ([1]; −80°C, 7 days, low concentration (pyrotinib 15, pyrotinib M1 0.015 μM)): 98.95%
Stability in rat plasma, RE ([1]; −80°C, 7 days, medium concentration (pyrotinib 150, pyrotinib M1 0.15 μM)): 108.01%
Km [2]: 4.09 µM
AUC(0-inf) [3, 6]: 29200 ng·h/mL
AUC(0-t) [3, 6]: 29100 ng·h/mL
CL/F [3, 6]: 4.83 mL/min/kg
Cmax [3, 6]: 4290 ng/mL
Vd/F [3, 6]: 1.09 ± 0.21 L/kg
AUC(0-inf) [3, 7]: 18000 ng·h/mL
AUC(0-t) [3, 7]: 18000 ng·h/mL
CL/F [3, 7]: 7.5 mL/min/kg
Cmax [3, 7]: 3000 ng/mL
Vd/F [3, 7]: 1 ± 0.58 L/kg
AUC(0-inf) [3, 8]: 36500 ng·h/mL
AUC(0-t) [3, 8]: 36300 ng·h/mL
CL/F [3, 8]: 3.83 mL/min/kg
Cmax [3, 8]: 4680 ng/mL
Vd/F [3, 8]: 0.89 ± 0.24 L/kg
AUC(0-inf) ([3]; control group (0.5% CMC-Na)): 17800 ng·h/mL
AUC(0-t) ([3]; control group (0.5% CMC-Na)): 17800 ng·h/mL
CL/F ([3]; control group (0.5% CMC-Na)): 7.67 mL/min/kg
Cmax ([3]; control group (0.5% CMC-Na)): 3060 ng/mL
Vd/F ([3]; control group (0.5% CMC-Na)): 0.81 ± 0.25 L/kg
MRT(0-t) [3, 6]: 5.28 ± 0.24 H
MRT(0-∞) [3, 6]: 5.37 ± 0.27 H
Tmax [3, 6]: 3.83 ± 0.41 H
t1/2 [3, 6]: 2.66 ± 0.15 H
MRT(0-t) [3, 7]: 4.55 ± 0.36 H
MRT(0-∞) [3, 7]: 4.56 ± 0.37 H
Tmax [3, 7]: 4.00 ± 1.10 H
t1/2 [3, 7]: 1.47 ± 0.63 H
MRT(0-t) [3, 8]: 5.38 ± 0.38 H
MRT(0-∞) [3, 8]: 5.47 ± 0.38 H
Tmax [3, 8]: 4.00 ± 1.10 H
t1/2 [3, 8]: 2.66 ± 0.20 H
MRT(0-t) ([3]; control group (0.5% CMC-Na)): 4.32 ± 0.40 H
MRT(0-∞) ([3]; control group (0.5% CMC-Na)): 4.32 ± 0.42 H
Tmax ([3]; control group (0.5% CMC-Na)): 3.50 ± 1.23 H
t1/2 ([3]; control group (0.5% CMC-Na)): 1.26 ± 0.54 H
decrease of Cl/F compared to the control group ([3]; coadministrated with ketoconazole): approximately 50%
decrease of Cl/F compared with control group ([3]; fluconazole group): 0.37 fold
increase of AUC(0-t) compared with control group ([3]; fluconazole group): 0.63 fold
increase of Cmax compared with control group ([3]; fluconazole group): 0.40 fold
decrease of Cl/F compared with control group ([3]; ketoconazole group): 0.50 fold
increase of AUC(0-t) compared with control group ([3]; ketoconazole group): 1.04 fold
increase of Cmax compared with control group ([3]; ketoconazole group): 0.53 fold
SMILES: CCOc1cc2ncc(C#N)c(Nc3ccc(OCc4ccccn4)c(Cl)c3)c2cc1NC(=O)/C=C/[C@H]1CCCN1C [pyrotinib, Pyrotinib]
Vmax [2]: 58.33 pmol/min/mg protein
mean terminal half-life (t1/2) [4]: 11.4 to 15.9 h
time required to attain maximum plasma concentration (Tmax) [4]: 3 to 5 h

IC50 [5]: 11.6 µM
Ki [5]: 15.1 µM
αKi [5]: 19.01 µM
SMILES: OC(Cn1cncn1)(Cn1cncn1)c1ccc(F)cc1F [fluconazole, Fluconazole]

SMILES: CC(=O)N1CCN(c2ccc(OCC3COC(Cn4ccnc4)(c4ccc(Cl)cc4Cl)O3)cc2)CC1 (centres unmarked) [ketoconazole, Ketoconazole]
IC50 [5]: 0.06 µM
Ki [5]: 0.132 µM
αKi [5]: 0.077 µM

Source: paper PMC9490176 (Frontiers in Pharmacology, 2022)
